Assay results taken from patent publication US10723695B2, “Microbiocidal phenylamidine derivatives” (SYNGENTA PARTICIPATIONS AG, priority 2015, dated 2020).

Key:
Assay type in all cases: in vivo
[1] = tested on: Blumeria graminis f. sp. tritici (Erysiphe graminis f. sp. tritici); experiment: Blumeria graminis f. sp. tritici / wheat / leaf disc preventative (powdery mildew on wheat); conditions: foliar, wheat leaf segments cv. Kanzler, compared to untreated control leaf disks, read-out: disease control
Text: Blumeria graminis f. sp. tritici (Erysiphe graminis f. sp. tritici)/Wheat/Leaf Disc Preventative (Powdery Mildew on Wheat) Wheat leaf segments cv. Kanzler were placed on agar in a multiwell plate (24-well format) and sprayed with the formulated test compound diluted in water. The leaf disks were inoculated by shaking powdery mildew infected plants above the test plates 1 day after application.

[2] = tested on: Phakopsora pachyrhizi; experiment: Phakopsora pachyrhizi / soybean / leaf disk preventative (soybean rust); conditions: foliar, soybean leaf disks, compared to untreated control leaf disks, read-out: disease control
Method: Phakopsora pachyrhizi/Soybean/Leaf Disk Preventative (Soybean Rust) Four-week old soybean plants are sprayed in a spray chamber with the formulated test compound diluted in water. Leaf disks are cut from treated plants and placed on agar into 24-well plates one day after application. Leaf disks are inoculated by spraying them with a spore suspension on their lower leaf surface. After an incubation period in a climate cabinet of 24-36 hours in darkness at 20° C. and 75% rh, the leaf disks are then kept at 20° C. with 12 h light/day and 75% rh. The percentage leaf disk area covered by disease is assessed when an appropriate level of disease appears on untreated check plants (12-14 days after application).

[3] = tested on: Puccinia recondita f. sp. tritici; experiment: Puccinia recondita f. sp. tritici / wheat / leaf disc preventative (brown rust); conditions: foliar, wheat leaf segments cv. Kanzler, compared to untreated control leaf disks, read-out: disease control
Method: Puccinia recondita f. sp. tritici/Wheat/Leaf Disc Preventative (Brown Rust) Wheat leaf segments cv. Kanzler were placed on agar in multiwell plates (24-well format) and sprayed with the formulated test compound diluted in water. The leaf disks were inoculated with a spore suspension of the fungus 1 day after application. The inoculated leaf segments were incubated at 19° C. and 75% rh under a light regime of 12 h light/12 h darkness in a climate cabinet and the activity of a compound was assessed as percent disease control compared to untreated when an appropriate level of disease damage appears in untreated check leaf segments (7-9 days after application).

[4] = tested on: Puccinia recondita f. sp. tritici; experiment: Puccinia recondita f. sp. tritici / wheat / leaf disc curative (brown rust); conditions: foliar, 24 h, wheat leaf segments cv. Kanzler, curative (applied 1 day after inoculation), compared to untreated control leaf disks, read-out: disease control
Method: Puccinia recondita f. sp. tritici/Wheat/Leaf Disc Curative (Brown Rust) Wheat leaf segments cv. Kanzler are placed on agar in multiwell plates (24-well format). The leaf segments are inoculated with a spore suspension of the fungus. Plates were stored in darkness at 19° C. and 75% rh. The formulated test compound diluted in water was applied 1 day after inoculation.

Measured: pest or weed control at 200 ppm

C=C(C)CC(O)(c1cc(C)c(/N=C/N(C)CC)cc1OC)C(F)(F)F (stereo not drawn) [Compound E1.075]
≥ 80%: all assays above

CCN(C)/C=N/c1cc(OC)c(C(O)(c2cccc(SC)c2)C(F)(F)F)cc1C (stereo not drawn) [Compound E1.042]
≥ 80%: [1] | [4]

CCN(C)/C=N/c1cc(OC)c(C(O)(C(C)C)C(F)(F)Cl)cc1C (stereo not drawn) [Compound E1.119]
≥ 80%: all assays above

CCN(C)/C=N/c1cc(OC)c(C(O)(C2CCCC2)C(F)(F)F)cc1C (stereo not drawn) [Compound E1.050]
≥ 80%: all assays above

COc1cc(/N=C/N(C)C2CC2)c(C)cc1C(O)(c1ccccc1)C(F)(F)F (stereo not drawn) [Compound E1.008]
≥ 80%: [3] | [4]

C=C(C)C(O)(c1cc(C)c(/N=C/N(C)CC)cc1OC)C(F)(F)F (stereo not drawn) [Compound E1.078]
≥ 80%: all assays above

CCN(C)/C=N/c1cc(OC)c(C(O)(Cc2ccc(F)cc2)C(F)(F)F)cc1C (stereo not drawn) [Compound E1.091]
≥ 80%: [1] | [2] | [4]

CCN(C)/C=N/c1cc(OC)c(C(C)(O)c2ccccc2)cc1C (stereo not drawn) [Compound E1.007, N-ethyl-N′-[4-(1-hydroxy-1-phenyl-ethyl)-5-methoxy-2-methyl-phenyl]-N-methyl-formamidine]
≥ 80%: all assays above

CCN(C)/C=N/c1cc(OC)c(C(O)(C2=CCCC2)C(F)(F)F)cc1C (stereo not drawn) [Compound E1.079]
≥ 80%: [1] | [3] | [4]

CCN(C)/C=N/c1cc(OC)c(C(O)(c2cc(Cl)cc(Cl)c2)C(F)(F)F)cc1C (stereo not drawn) [Compound E1.013]
≥ 80%: [1] | [3] | [4]

CCN(C)/C=N/c1cc(OC)c(C(O)(CCC(C)C)C(F)(F)F)cc1C (stereo not drawn) [Compound E1.068]
≥ 80%: all assays above

CCN(C)/C=N/c1cc(OC)c(C(O)(CC(C)C)C(F)(F)F)cc1C (stereo not drawn) [Compound E1.051]
≥ 80%: all assays above

CCN(C)/C=N/c1cc(OC)c(C(O)(C2CC2)C(F)(F)Cl)cc1C (stereo not drawn) [Compound E1.120]
≥ 80%: all assays above

CCN(C)/C=N/c1cc(OC)c(C(O)(c2ccccc2)C(F)(F)Cl)cc1C (stereo not drawn) [Compound E1.122]
≥ 80%: all assays above

CCN(C)/C=N/c1cc(OC)c(C(O)C(F)(F)Cl)cc1C (stereo not drawn) [Compound E1.118]
≥ 80%: all assays above

CCN(C)/C=N/c1cc(OC)c(C(O)(Cn2nc(C)c(Cl)c2C)C(F)(F)F)cc1C (stereo not drawn) [Compound E1.096]
≥ 80%: [2]

CCN(C)/C=N/c1cc(OC)c(C(O)(Cc2cccc(F)n2)C(F)(F)F)cc1C (stereo not drawn) [Compound E1.102]
≥ 80%: [1] | [2] | [4]

CCCCC(O)(c1cc(C)c(/N=C/N(C)CC)cc1SC)C(F)(F)F (stereo not drawn) [Compound E1.114]
≥ 80%: [1] | [2] | [4]

CCN(C)/C=N/c1cc(OC)c(C(O)(Cn2cncn2)C(F)(F)F)cc1C (stereo not drawn) [Compound E1.098]
≥ 80%: [1] | [3] | [4]

CCN(C)/C=N/c1cc(OC)c([C@@](O)(c2ccccc2)C(F)(F)F)cc1C [Compound E1.015]
≥ 80%: all assays above

CCN(C)/C=N/c1cc(OC)c(C(O)(C2CCC(C)(C)CC2)C(F)(F)F)cc1C (stereo not drawn) [Compound E1.061]
≥ 80%: all assays above

CCN(C)/C=N/c1cc(OC)c([C@](O)(c2ccccc2)C(F)(F)F)cc1C [Compound E1.014]
≥ 80%: all assays above

CCCCCC(O)(c1cc(C)c(/N=C/N(C)CC)cc1OC)C(F)(F)F (stereo not drawn) [Compound E1.065]
≥ 80%: all assays above

CCN(C)/C=N/c1cc(OC)c(C(O)(C(C)C)C(F)(F)F)cc1C (stereo not drawn) [Compound E1.054, N-ethyl-N′-[4-[1-hydroxy-2-methyl-1-(trifluoromethyl)propyl]-5-methoxy-2-methyl-phenyl]-N-methyl-formamidine]
≥ 80%: all assays above

COc1cc(/N=C/N(C)C(C)C)c(C)cc1C(O)(C1CCCC1)C(F)(F)F (stereo not drawn) [Compound E1.060]
≥ 80%: [1] | [3] | [4]

CCN(C)/C=N/c1cc(OC)c(C(O)(Cn2cc3ccccc3n2)C(F)(F)F)cc1C (stereo not drawn) [Compound E1.092]
≥ 80%: [1] | [3] | [4]

CCN(C)/C=N/c1cc(OC)c(C(O)(c2cnn(-c3ccccc3)c2)C(F)(F)F)cc1C (stereo not drawn) [Compound E1.109]
≥ 80%: [1] | [3] | [4]

CCN(C)/C=N/c1cc(OC)c(C(O)(c2cnn(CC)c2)C(F)(F)F)cc1C (stereo not drawn) [Compound E1.111]
≥ 80%: [2] | [3] | [4]

CCN(C)/C=N/c1cc(OC)c(C(O)(c2cnn(C(C)C)c2)C(F)(F)F)cc1C (stereo not drawn) [Compound E1.110]
≥ 80%: [3] | [4]

CCN(C)/C=N/c1cc(OC)c(C(O)(c2ccc(SC(F)F)cc2)C(F)(F)F)cc1C (stereo not drawn) [Compound E1.038]
≥ 80%: [1] | [4]

CCN(C)/C=N/c1cc(OC)c(C(O)(C2=CCCCC2)C(F)(F)F)cc1C (stereo not drawn) [Compound E1.080]
≥ 80%: [1] | [3] | [4]
